According to patent publication US20240325383A1, “Small Molecule Targeting of BRD4 for Treatment of COVID-19” (Board of Regents, The University of Texas System, priority 2023, published 2024):
“Also recorded” adds a separate entry of the source.

Key:
[1] = cited from earlier work
CXCL10 expression = assay type: cell-based, human
rSARS-COV-2mNG = assay type: cell-based, SARS-COV-2

## CCC(=O)O[C@]1(C(=O)SCF)[C@H](C)C[C@H]2[C@@H]3C[C@H](F)C4=CC(=O)C=C[C@]4(C)[C@@]3(F)[C@@H](O)C[C@@]21C [Fluticasone propionate]
[1]; 95% ethanol
  solubility in 95% ethanol: slightly soluble
[1]; dimethyl sulfoxide
  solubility in dimethyl sulfoxide: freely soluble
[1]; dimethylformamide
  solubility in dimethylformamide: freely soluble
[1]; methanol
  solubility in methanol: slightly soluble
[1]; water
  solubility in water: practically insoluble

## COc1cc(OC)c2c(=O)cc(-c3cc(C)c(OCCCN4CCN(C)CC4)c(C)c3)oc2c1 [ZL0969]
CXCL10 expression
  CXCL10 expression: reduces expression levels of CXCL10; also recorded: reduce CXCL10 expression
rSARS-COV-2mNG
  virus titer (FFA): significantly reduce virus titer
